Laboratory results from PubChem BioAssay AID1845212 (Molecular Pharmacology Branch, DTP, NCI, 2023).
Where “and” joins values, the source holds several entries; their conditions need not be identical. Identical values can stand only once.

Test system: NCI-H719 tumor spheroids, viability
Assay: Anticancer human tumor NCI-H719 cell line growth inhibition;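 also: spheroids exposed to compounds for seven days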;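 as to viability, T/C: percent viability relative to DMSO vehicle control as 100%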
Conditions: spheroids with HUVEC and MSC; for viability, T/C: stronger effect = lower value
Summary of the method: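 Single agents and combinations were tested on spheroids built from tumor cells plus HUVEC and hMSC, at half-log dilutions starting at or near clinical Cmax, else 10 microM; final DMSO 0.25% (v/v).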

`O=C(c1cc(Cc2n[nH]c(=O)c3ccccc23)ccc1F)N1CCN(C(=O)C2CC2)CC1` + Cn1nnc2c(C(N)=O)ncn2c1=O showed an IC50 (curve of first compound, second compound 1 µM) of 1720 nM, an IC50 (curve of first compound, second compound 3.16 µM) of 1360 nM and an IC50 (curve of first compound, second compound 10 µM) of 1950 nM. The IC50 (curve of first compound, second compound 31.6 µM) was < 94.9 nM, the IC50 (curve of first compound, second compound 100 µM) was < 94.9 nM and the viability, T/C (second compound 1 µM, first compound 0.0949 µM) was 73.7%. It also gave a viability, T/C (second compound 1 µM, first compound 0.3 µM) of 56%, a viability, T/C (second compound 1 µM, first compound 0.949 µM) of 56.1% and a viability, T/C (second compound 1 µM, first compound 3 µM) of 42.1%. For the same compound, the viability, T/C (second compound 1 µM, first compound 9.49 µM) was 7.25%, the viability, T/C (second compound 1 µM, first compound 30 µM) was 6.89% and the viability, T/C (second compound 3.16 µM, first compound 0.0949 µM) was 64.2%. It also gave a viability, T/C (second compound 3.16 µM, first compound 0.3 µM) of 60.5%, a viability, T/C (second compound 3.16 µM, first compound 0.949 µM) of 67% and a viability, T/C (second compound 3.16 µM, first compound 3 µM) of 19.5%. It also gave a viability, T/C (second compound 3.16 µM, first compound 9.49 µM) of 20.2%, a viability, T/C (second compound 3.16 µM, first compound 30 µM) of 7.9% and a viability, T/C (second compound 10 µM, first compound 0.0949 µM) of 55.8%. It also gave a viability, T/C (second compound 10 µM, first compound 0.3 µM) of 66.7%, a viability, T/C (second compound 10 µM, first compound 0.949 µM) of 56% and a viability, T/C (second compound 10 µM, first compound 3 µM) of 43.9%. The viability, T/C (second compound 10 µM, first compound 9.49 µM) was 29.8%, the viability, T/C (second compound 10 µM, first compound 30 µM) was 7.79% and the viability, T/C (second compound 31.6 µM, first compound 0.0949 µM) was 52.4%. The viability, T/C (second compound 31.6 µM, first compound 0.3 µM) was 53.3%, the viability, T/C (second compound 31.6 µM, first compound 0.949 µM) was 34.1% and the viability, T/C (second compound 31.6 µM, first compound 3 µM) was 40.7%. The viability, T/C (second compound 31.6 µM, first compound 9.49 µM) was 42.8%, the viability, T/C (second compound 31.6 µM, first compound 30 µM) was 6.8% and the viability, T/C (second compound 100 µM, first compound 0.0949 µM) was 43.5%. For the same compound, the viability, T/C (second compound 100 µM, first compound 0.3 µM) was 21.9%, the viability, T/C (second compound 100 µM, first compound 0.949 µM) was 29.4% and the viability, T/C (second compound 100 µM, first compound 3 µM) was 51.8%. It also gave a viability, T/C (second compound 100 µM, first compound 9.49 µM) of 7.29% and a viability, T/C (second compound 100 µM, first compound 30 µM) of 7.19%.

In the case of `Cc1cc(C)c(CNC(=O)c2cc(-c3ccc(CN4CCOCC4)cc3)cc3c2cnn3C2CCCC2)c(=O)[nH]1`, the viability, T/C (compound 0.0316 µM) is reported as 80.8% and 102% and 115%, the viability, T/C (compound 0.1 µM) is reported as 83.4% and 99.2% and 117% and the viability, T/C (compound 0.316 µM) is reported as 84.8% and 97.1% and 111%. The viability, T/C (compound 1 µM) was 79.3% and 108% and 121%, the viability, T/C (compound 3.16 µM) was 114% and 92.6% and 103% and the viability, T/C (compound 10 µM) was 77.5% and 87.8% and 72.1%. The IC50 (curve of compound) was > 10000 nM.

`CC(C)n1c(=O)n(C)c2cnc3cc(F)c(-c4ccc(OCCCN5CCCCC5)nc4)cc3c21` + CC[C@@]1(O)C(=O)OCc2c1cc1n(c2=O)Cc2cc3c(CN(C)C)c(O)ccc3nc2-1 was tested, and the IC50 (curve of first compound, second compound 0.003 µM) was < 31.6 nM, the IC50 (curve of first compound, second compound 0.00949 µM) was < 31.6 nM and the IC50 (curve of first compound, second compound 0.03 µM) was < 31.6 nM. The IC50 (curve of first compound, second compound 0.0949 µM) was < 31.6 nM, the IC50 (curve of first compound, second compound 0.3 µM) was < 31.6 nM and the viability, T/C (second compound 0.003 µM, first compound 0.0316 µM) was 33.1%. It also gave a viability, T/C (second compound 0.003 µM, first compound 0.1 µM) of 48.3%, a viability, T/C (second compound 0.003 µM, first compound 0.316 µM) of 61.5% and a viability, T/C (second compound 0.003 µM, first compound 1 µM) of 63.7%. For the same compound, the viability, T/C (second compound 0.003 µM, first compound 3.16 µM) was 67.9%, the viability, T/C (second compound 0.003 µM, first compound 10 µM) was 50.5% and the viability, T/C (second compound 0.00949 µM, first compound 0.0316 µM) was 8.54%. For the same compound, the viability, T/C (second compound 0.00949 µM, first compound 0.1 µM) was 8.8%, the viability, T/C (second compound 0.00949 µM, first compound 0.316 µM) was 7.39% and the viability, T/C (second compound 0.00949 µM, first compound 1 µM) was 6.31%. For the same compound, the viability, T/C (second compound 0.00949 µM, first compound 3.16 µM) was 16.9%, the viability, T/C (second compound 0.00949 µM, first compound 10 µM) was 12.7% and the viability, T/C (second compound 0.03 µM, first compound 0.0316 µM) was 7.27%. It also gave a viability, T/C (second compound 0.03 µM, first compound 0.1 µM) of 6.04%, a viability, T/C (second compound 0.03 µM, first compound 0.316 µM) of 7.74% and a viability, T/C (second compound 0.03 µM, first compound 1 µM) of 6.96%. The viability, T/C (second compound 0.03 µM, first compound 3.16 µM) was 8.35%, the viability, T/C (second compound 0.03 µM, first compound 10 µM) was 6.27% and the viability, T/C (second compound 0.0949 µM, first compound 0.0316 µM) was 7.12%. The viability, T/C (second compound 0.0949 µM, first compound 0.1 µM) was 6.79%, the viability, T/C (second compound 0.0949 µM, first compound 0.316 µM) was 7.51% and the viability, T/C (second compound 0.0949 µM, first compound 1 µM) was 7.66%. The viability, T/C (second compound 0.0949 µM, first compound 3.16 µM) was 7.78%, the viability, T/C (second compound 0.0949 µM, first compound 10 µM) was 6.17% and the viability, T/C (second compound 0.3 µM, first compound 0.0316 µM) was 8.38%. It also gave a viability, T/C (second compound 0.3 µM, first compound 0.1 µM) of 7.86%, a viability, T/C (second compound 0.3 µM, first compound 0.316 µM) of 8.29% and a viability, T/C (second compound 0.3 µM, first compound 1 µM) of 8.95%. For the same compound, the viability, T/C (second compound 0.3 µM, first compound 3.16 µM) was 8.79% and the viability, T/C (second compound 0.3 µM, first compound 10 µM) was 5.92%.
